Laboratory results as given in patent publication US7662775B2 (Astellas Pharma Inc., priority 2000, dated 2010).

How the values were obtained:
[1] = target: T1, polypeptide consisting of the amino acid sequence of SEQ ID NO: 2 (Homo sapiens, UniProt Q8TDV5); assay: CRE-luciferase reporter screening in transfected 293-EBNA cells (Example 7); type: cell-based; conditions: 293-EBNA cells transfected with pEF-BOS-NA and pCRE-Luc; 5-6 hours incubation; read-out: EC50 value (increase of reporter activity)
T1 construct: expressed in transfected cells; host or cells: 293-EBNA cells, transient transfection with plasmid pEF-BOS-NA
T1 sequence (Q8TDV5 1-335): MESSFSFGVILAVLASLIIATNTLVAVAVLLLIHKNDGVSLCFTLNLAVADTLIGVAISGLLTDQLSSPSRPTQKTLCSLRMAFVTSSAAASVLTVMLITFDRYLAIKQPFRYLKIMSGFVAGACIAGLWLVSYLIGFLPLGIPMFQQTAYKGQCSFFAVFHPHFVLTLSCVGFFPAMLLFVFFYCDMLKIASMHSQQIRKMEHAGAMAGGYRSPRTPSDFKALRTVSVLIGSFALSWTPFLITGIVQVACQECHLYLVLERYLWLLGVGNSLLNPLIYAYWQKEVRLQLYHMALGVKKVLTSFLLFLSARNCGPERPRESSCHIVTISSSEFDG
Description: (§1) The pEF-BOS-NA plasmid used in Example 6 was also used in the present Example.
293-EBNA cells, (1×10^4 cells/well) were seeded on a 96-well plate coated with collagen, and cultured overnight in a Dulbecco modified Eagles' medium (DMEM) containing 10% fetal calf serum (FCS). Then, a transfection reagent (LIPOFECTAMINE 2000; GIBCO BRL) was used to transfect 0.01 ng of a plasmid pEF-BOS-NA or a plasmid pEF-BOS (negative control vector) and 5 ng of a pCRE-Luc vector (CLONTECH) to the cells. […] After the medium was aspirated, the cells were lysed with a cell lysing solution (cell lysis buffer LCβ; Toyo Ink Mfg.). A luciferase activity of the lysate was measured by a commercially available measuring kit (PicaGene Luminescent kit; Toyo Ink Mfg.) and a measuring apparatus (ML3000 microtiter plate luminometer; Dynatech Laboratories).

[2] = test system: mouse pancreatic β cell line MIN6; assay: Insulin secretion from mouse pancreatic β cell line MIN6, Part 1 (Example 8); type: cell-based; conditions: MIN6 cells, 20 minutes
Description: MIN6 cells (2×10^5 cells) were seeded on a 24-well plate, and cultured for 2 days in a DMEM containing 10% FCS. The medium was aspirated, and the cells were washed with KRB-HEPES (140 mmol/L NaCl, 3.6 mmol/L KC1, 0.5 mmol/L NaH2PO4, 0.5 mmol/L MgSO4, 1.5 mmol/L CaCl2, 10 mmol/L Hepes, 2 mmol/L NaHCO3, 0.1% BSA, pH7.4). After 2.8 mmol/L glucose-containing KRB-HEPES (1 ml) was added, the whole was incubated at 37° C. for 30-60 minutes in the presence of 5% CO2.
After the buffer was aspirated, one of the four compounds obtained by the screening in Example 7, i.e., 2-(pyridine-4-yl)ethyl thiobenzoate, in the form of a solution (0.5 ml) prepared by diluting the compound with 2.8 mmol/L or 16.8 mmol/L glucose-containing KRB-HEPES, was added, and the whole was incubated at 37° C. for 20 minutes in the presence of 5% CO2. A supernatant was used for measuring an amount of insulin secreted.
(§2) A commercially available insulin radioimmunoassay kit (Phadeseph insulin; Pharmacia Upjohn) was used for the measurement of the amount of insulin secreted.

SD rats = assay: Glucose tolerance test for SD rats (Example 9); type: in vivo, rat; conditions: 100 mg/kg intraperitoneally 5 minutes before 2 g/kg oral glucose, 30 minutes after glucose, p<0.05 vs control
Description: (§3) SD rats (4 weeks old; CLEA JAPAN) were forced to fast overnight, and 2 g/kg of glucose was orally administered. 100 mg/kg of 2-(pyridine-4-yl)ethyl thiobenzoate (LT-1 Z 0059519) had been intraperitoneally administered 5 minutes before the glucose administration. An appropriate amount of blood was taken 0 minute, 30 minutes, 60 minutes, and 120 minutes after the glucose administration, and used for the measurement of a blood glucose level and a concentration of plasma insulin.
(§4) For measuring the blood glucose level, a supernatant obtained by mixing blood and 0.33 mol/L perchloric acid (blood:0.33 mol/L perchloric acid=1:10) and centrifuging the mixture (3000×g, 10 minutes, 4° C.) was used. For measuring the concentration of plasma insulin, a supernatant obtained by centrifuging blood (3000×g, 10 minutes, 4° C.) was used. Further, Glucose C test Wako (Wako) was used in the measurement of the blood glucose level, and a rat insulin assay system (Amersham) was used in the measurement of the concentration of plasma insulin.
FIG. 1 illustrates a time course of the concentration of plasma insulin (unit=ng/mL) after the oral administration of glucose, and FIG. 2 illustrates a time course of the blood glucose level (unit=mg/dL) after the oral administration of glucose. […]

GK (Goto-Kakizaki) rats = assay: Glucose tolerance test for GK rats, type II diabetes model (Example 9); type: in vivo, rat; conditions: 100 mg/kg orally administered, 2 g/kg oral glucose, 30 and 60 minutes after glucose
Description: as §3, §4
Then, a glucose tolerance test for GK (Goto-Kakizaki) rats (type II diabetes models with incomplete insulin secretion; 7 weeks old; Charles River Japan) by one oral dose was carried out. […]

[3] = target: T1, polypeptide consisting of the amino acid sequence of SEQ ID NO: 2; assay: CRE-luciferase reporter screening in transfected 293-EBNA cells (Example 10); type: cell-based; conditions: 293-EBNA cells transfected with pEF-BOS-NA and pCRE-Luc; 6 hours; specific versus pEF-BOS control vector
Description: as §1
293-EBNA cells (7×10^4 cells/well) were seeded on a 24-well plate coated with collagen, and cultured overnight in a Dulbecco modified Eagles' medium (DMEM) containing 1% fetal calf serum (FCS). Then, a transfection reagent (LIPOFECTAMINE 2000; GIBCO BRL) was used to transfect 0.1 ng of a plasmid pEF-BOS-NA or a plasmid pEF-BOS (negative control vector) and 20 ng of a pCRE-Luc vector (CLONTECH) to the cells. The transfected cells were further cultured for 18-20 hours, and then a test compound diluted with a medium containing 0.1% BSA was added, and the whole was incubated at 37° C. for 6 hours in the presence of 5% CO2. After the medium was aspirated, the cells were lysed with a cell lysing solution (cell lysis buffer LCβ; Toyo Ink Mfg.). A luciferase activity of the lysate was measured by a commercially available measuring kit (PicaGene Luminescence kit; Toyo Ink Mfg.) and a measuring apparatus (ML3000 microtiter plate luminometer; Dynatech Laboratories).
L-α-lysophosphatidylcholine oleoyl (L1881; SIGMA), a biocomponent, could be obtained.

[4] = target: T1, polypeptide consisting of the amino acid sequence of SEQ ID NO: 2; assay: Intracellular cAMP amount in transfected 293-EBNA cells, enzymeimmunoassay (Example 11); type: cell-based; conditions: 293-EBNA cells transfected with pEF-BOS-NA; 1 mmol/L IBMX; 30 minutes
Description: as §1
293-EBNA Cells (1×10^4 cells/well) were seeded on a 96-well plate coated with collagen, and cultured for 24 hours. Then, a transfection reagent (LIPOFECTAMINE 2000; GIBCO BRL) was used to transfect 3 ng of a plasmid pEF-BOS-NA or a plasmid pEF-BOS (negative control vector) to the cells. The transfected cells were further cultured for 20 hours, and the medium was aspirated. After 80 μL of 1 mmol/L IBMX (3-isobutyl-1-methylxanthine)/0.1% BSA/DMEM was added, the whole was incubated at 37° C. for 10 minutes in the presence of 5% CO2. Then, a test compound diluted with 20 μL of 1 mmol/L IBMX/0.1% BSA/DMEM was added, and the whole was incubated for 30 minutes. After the medium was aspirated, the resulting cells were used for the measurement of an amount of cAMP. A commercially available cAMP enzymeimmunoassay system (cyclic AMP kit; Nihon Schering) was used to measure the amount of cAMP.

[5] = test system: mouse pancreatic β cell line MIN6; assay: Insulin secretion from mouse pancreatic β cell line MIN6, Part 2 (Example 12); type: cell-based; conditions: MIN6 cells, 16.8 mmol/L glucose, 30 minutes
Description: MIN6 cells (2.5×10^5 cells) were seeded on a 24-well plate coated with collagen, and cultured for 2 days in a DMEM containing 10% FCS (Cat. No. 11995-065; GIBCO BRL). The medium was aspirated, and 0.4 mL of a glucose-free DMEM containing 10% FCS (Cat. No. 11966-025; GIBCO BRL) was added. The whole was incubated at 37° C. for 2 hours in the presence of 5% CO2.
After the medium was aspirated, 0.5 mL of a solution of L-α-lysophosphatidylcholine oleoyl, the compound selected by the screening method in Example 10, diluted with 2.8 mmol/L or 16.8 mmol/L glucose-containing DMEM (Cat. No. 11966-025; GIBCO BRL) was added, and the whole was incubated at 37° C. for 30 minutes in the presence of 5% CO2. A supernatant was used for measuring an amount of insulin secreted.
as §2

Compound | EC50 [1] [µM] | amount of insulin secreted ([2]; 2.8 mmol/L glucose) | amount of insulin secreted ([2]; 16.8 mmol/L glucose) | concentration of plasma insulin (SD rats) | increase of the blood glucose level by the glucose administration (SD rats) | increase of the blood glucose level by the glucose administration (GK (Goto-Kakizaki) rats) | reporter activity (luciferase) [3] | amount of cAMP [4] | amount of insulin secreted [5]
O=C(SCCc1ccncc1)c1ccccc1 | 3.2 | did not cause an increase | caused an increase | significant increase | significantly suppressed | significantly suppressed |  |  | 
CCCCCCCC/C=C\CCCCCCCC(=O)OC[C@@H](O)COP(=O)([O-])OCC[N+](C)(C)C [L-α-lysophosphatidylcholine oleoyl] |  |  |  |  |  |  | increase of a reporter activity specifically in cells | exhibited an increase of the amount of cAMP specifically in the cells | caused an increase
